Tested on: primary cortical neurons injured by glutamate
Assay: Neuroprotection of primary cortical neurons injured by glutamate: neuron survival and neurite network (MAP-2 staining)
Format: cell-based, rat
Conditions: for effect on neuritic network / effect on neuron survival: glutamate 40 μM
Description: Rat cortical neurons were cultured as described by Singer et al., (J. Neuroscience, (1999), 19(7), 2455-2463) and Callizot et al. (J. Neurosc., (2013), Res. 91(5), 706-716).
Pregnant females (Wistar; JanvierLabs, St Berthevin, France) at 15 days of gestation were killed by cervical dislocation. Foetuses were collected and immediately placed in ice-cold L15 Leibovitz medium (Pan Biotech, Aidenbach, Germany) with a 2% penicillin (10,000 U/ml) and streptomycin (10 mg/ml) solution (PS; Pan Biotech, Aidenbach, Germany) and 1% bovine serum albumin (BSA; Pan Biotech, Aidenbach, Germany). Cortex was treated for 20 min at 37° C. with a trypsin-EDTA (Pan Biotech, Aidenbach, Germany) solution at a final concentration of 0.05% trypsin and 0.02% EDTA. The dissociation was stopped by addition of Dulbecco's modified Eagle's medium (DMEM) with 4.5 g/liter of glucose (Pan Biotech, Aidenbach, Germany), containing DNAse I grade II (final concentration 0.5 mg/ml; Pan Biotech, Germany) and 10% fetal calf serum (FCS; Invitrogen, Cergy Pointoise, France). Cells were mechanically dissociated by three forced passages through the tip of a 10-ml pipette. Cells were then centrifuged at 515 g for 10 min at 4° C. The supernatant was discarded, and the pellet was resuspended in a defined culture medium consisting of Neurobasal medium (Invitrogen, Cergy Pointoise, France) with a 2% solution of B27 supplement (Invitrogen, Cergy Pointoise, France), 2 mmol/liter of L-glutamine (Pan Biotech, Aidenbach, Germany), 2% of PS solution, and 10 ng/ml of brain-derived neurotrophic factor (BDNF; Pan Biotech, Aidenbach, Germany). Viable cells were counted in a Neubauer cytometer, using the trypan blue exclusion test. The cells were seeded at a density of 30,000 per well in 96-well plates precoated with poly-L-lysine (Corning Biocoat, Tewksbury, USA) and were cultured at 37° C. in an air (95%)-CO2 (5%) incubator. The medium was changed every 2 days. The cortical neurons were intoxicated with glutamate solutions (see below) after 13 days of culture.
On day 13, glutamate (Sigma Aldrich, Lyon, France) was added into cell culture to a final concentration of 40 μM diluted in control medium in presence or absence of test compounds for 20 min. After 20 min, the cells were washed-out and new fresh medium containing or not NSPXX-E2 or NSPXX-E1 extracts was added for 48 h additional time.
After 48 hours of glutamate intoxication, cells were fixed by a cold solution of ethanol (95%, Sigma) and acetic acid (5%, Sigma) for 5 min at −20° C. After permeabilization with 0.1% of saponin (Sigma), cells were incubated for 2 h with mouse monoclonal antibody anti microtubule-associated-protein 2 (MAP-2; Sigma) at dilution of 1/400 in PBS (Pan biotech) containing 1% foetal calf serum (Invitrogen) and 0.1% of saponin.
(§1) For each condition 6 wells were assessed, 30 pictures per well were taken using MetaXpress (molecular device) with 20× magnification (30 pictures at X20 representing ˜80% of the total well surface), to assess neurite network (MAP-2 staining). Analysis of picture was done using MetaXpress custum module editor software (molecular device), the total neurite length per picture was recorded). A mean neurite length of the ten pictures was automatically calculated per well, then one data was provided per well (total of 6 raw data were provided per condition).
as §1, with “magnification” for “magnification (30 pictures at X20 representing ˜80% of the total well surface),”, “cell bodies” for “neurite network”, “number of neurons” for “total neurite length”, “recorded.” for “recorded).”, “of neuron number” for “neurite length”
All values were expressed as mean+/−s.e.mean. […]

C[C@@H]1CC[C@@]2(OC1)O[C@H]1C[C@H]3[C@@H]4CC=C5C[C@@H](O[C@@H]6O[C@H](CO)[C@@H](O[C@@H]7O[C@@H](C)[C@H](O)[C@@H](O)[C@H]7O)[C@H](O)[C@H]6O[C@@H]6O[C@@H](C)[C@H](O)[C@@H](O)[C@H]6O)CC[C@]5(C)[C@H]4CC[C@]3(C)[C@H]1[C@@H]2C [DIOS, dioscin]
effect on neuritic network (6.3 nM-630 nM, 20 min): significant protective effect

C[C@@H]1CC[C@@]2(OC1)O[C@H]1C[C@H]3[C@@H]4CC=C5C[C@@H](O)CC[C@]5(C)[C@H]4CC[C@]3(C)[C@H]1[C@@H]2C [DIOSG, diosgenin]
effect on neuritic network (3 pM-30 pM, 20 min): significant protective effect | reduction of the concentration of diosgenin compared to diosgenin used alone (diosgenin combined with caffeic acid or ferulic acid): 10 fold

COc1cc(/C=C/C(=O)O)ccc1O [FA, ferulic acid]
effect on neuritic network (1 μM-100 μM, 20 min): significant protective effect

O=C(O)c1cc(O)c(O)c(O)c1 [Gallic acid, gallic acid]
viability at 10 µM (Rattus norvegicus, Primary cortical neuron, 20 min): ~80% | effect on neuritic network (between 10 pM and 1 μM, 20 min): significant protective effect

C[C@H]1CC[C@@]2(OC1)O[C@H]1C[C@H]3[C@@H]4CC[C@@H]5C[C@@H](O)CC[C@]5(C)[C@H]4CC[C@]3(C)[C@H]1[C@@H]2C [SAR, sarsasapogenin]
effect on neuritic network (100 pM-100 nM, 20 min): protective effect | effect on neuron survival (100 nM, 20 min): significant protective effect | toxicity for cortical neurons and for neuritic network (1 μmol/L or 10 μmol/L): toxic | toxicity on cortical neurons (at the highest concentrations tested): toxic | effect on neuritic network (between 100 pM and 10 nM, 20 min): significant protective effect | reduction of the steroidal saponin concentration compared to sarsasapogenin used alone (sarsasapogenin combined with caffeic acid or ferulic acid): 10 fold

O=c1c(O)c(-c2ccc(O)c(O)c2)oc2cc(O)cc(O)c12 [quercetin]
effect on neurite network (100 nM and 1 μM, glutamate injury): significant protective effect

catechin
effect on neuritic network (1 nM-1 μM, 20 min): protective effect | effect on neuron survival (between 100 nM and 1 μM, 20 min): significant protective effect | effect on neuritic network (between 500 nM and 5 μM, 20 min): significant protective effect

Source: patent US11951113B2, “Synergestic combination composition comprising a steroidal saponin, a first polyphenolic compound and a second polyphenolic compound” (NEURALIA, priority 2018, dated 2024)
